Assay results: patent US20260217701A1, “SELECTIVE BET INHIBITORS AND USES THEREOF” (Tay Therapeutics Limited, priority 2022, published 2026)
Where “and” joins values, the source holds several entries; their conditions need not be identical. Identical values can stand only once. Like-named read-outs stand apart in the source and are kept apart here.

Test: Dog PK study #2 (Compound A IV, HPBCD formulation)
Type: in vivo, beagle dogs
Procedure: For Dog PK study #2, a solution of Compound A was prepared in HPBCD (20% solution w/v)/DMSO (99/1) with a concentration of 0.5 mg/mL (Table 2B). The Compound A solution was administered to animals intravenously (IV), and animals were monitored over a 24 h period (Table 3C). Body weight was recorded prior to dosing, and detailed clinical observations were made prior to dosing and throughout the study, as needed.
Blood samples (~0.3 mL) were collected according to a schedule (shown below) by venipuncture of peripheral veins except for the dosing vein, and EDTA-K2 was used as anticoagulant. Within 30 minutes of collection, the samples were centrifuged at approximately 2000 times g-force for 10 minutes at 4° C. to obtain blood plasma. The plasma samples were immediately divided into two aliquots (~75 μL each), transferred to a cryogenic vial, and stored in a freezer at −75+15° C. prior to analysis.
Blood samples were collected at 0.083, 0.25, 0.5, 1, 2, 4, 8, and 24 h following the initial dosing (0 h).
The concentration of Compound A in the blood plasma was determined through liquid chromatography-mass spectrometry (LC-MS). The experiments were conducted on a Shimadzu HPLC(DGU-20A5R; LC-30AD; SIL-30AC; Rack Changer II; CTO-30A; and CBM-20A) and AB API 5500 LC/MS/MS instrument with an Agilent Poroshell EC-C18 4 μm (50×2.1 mm) column. A gradient of 95% water (0.1% formic acid)/95% acetonitrile (0.1% formic acid) was used as the mobile phase. The sample injection volume was 4 μL, and the flow rate was 0.6 mL/min. The gathered data were used for pharmacokinetic calculations using T1/2, CO, AUClast, AUCinf, MRTinf, Cl, Vss, and Number of Points for Regression as parameters.
The desired serial concentrations of working solutions were achieved by diluting stock solution of analyte with 50% acetonitrile in water solution. 5 μL of working solutions (5, 10, 20, 50, 100, 500, 1000, 5000, 10000 ng/ml) were added to 50 µL of the blank Beagle Dogs plasma to achieve calibration standards of 0.5~1000 ng/ml (0.5, 1, 2, 5, 10, 50, 100, 500, 1000 ng/ml) in a total volume of 55 μL. Five quality control samples at 1 ng/ml, 2 ng/mL, 5 ng/ml, 50 ng/mL and 800 ng/mL for plasma were prepared independently of those used for the calibration curves. These QC samples were prepared on the day of analysis in the same way as calibration standards.
55 μL standards, 55 μL QC samples and 55 μL unknown samples (50 μL plasma with 5 μL blank solution) were added to 200 μL of acetonitrile containing IS mixture (verapamil) for precipitating protein respectively. Then the samples were vortexed for 30 s. After centrifugation at 4° C., 3900 rpm for 15 min, the supernatant was diluted 3 times with water. 4 μL of diluted supernatant was injected into the LC/MS/MS system for quantitative analysis.

[1] = IV 1 mg/kg, HPBCD formulation, individual animals, 1 mg/kg
[2] = IV 1 mg/kg, HPBCD formulation, mean
[3] = beagle, dog, plasma, iv, 1 mg/kg, IV 1 mg/kg, HPBCD formulation, individual animals, read-out: Plasma concentration
[4] = beagle, dog, plasma, iv, 1 mg/kg, IV 1 mg/kg, HPBCD formulation, mean, read-out: Average plasma concentration
[5] = beagle, dog, plasma, iv, 1 mg/kg, IV 1 mg/kg, HPBCD formulation, mean

## Cn1cc(-c2ccccc2)c(-c2cn(C)c(=O)c3[nH]c(-c4cnn(C(F)(F)F)c4)cc23)cc1=O [Compound A, 6-methyl-4-(1-methyl-2-oxo-5-phenyl-1,2-dihydropyridin-4-yl)-2-(1-(trifluoromethyl)-1H-pyrazol-4-yl)-1,6-dihydro-7H-pyrrolo[2,3-c]pyridin-7-one]
IV
  clinical observations, HPBCD vs propylene glycol formulation: fewer clinical observations
[1]
  AUClast: 4409 ng·h/mL and 1577 ng·h/mL and 1732 ng·h/mL
  AUClast/D: 4409 (ng · h/mL)/(mg/kg) and 1577 (ng · h/mL)/(mg/kg) and 1732 (ng · h/mL)/(mg/kg)
  AUClnf: 4854 ng·h/mL and 1674 ng·h/mL and 2083 ng·h/mL
  AUC—%Extrap—obs: 9.17% and 5.83% and 16.8%
  C0: 476 ng/mL and 410 ng/mL
  CI_obs: 3.43 mL/min/kg and 9.95 mL/min/kg and 8.00 mL/min/kg
  MRTlnf—obs: 9.30 h and 6.26 h and 11.8 h
  T1/2: 6.45 h and 10.1 h
  Vss—obs: 1.91 L/kg and 3.74 L/kg and 5.67 L/kg
[2]
  AUClast/D: 2573 (ng · h/mL)/(mg/kg)
  AUC—%Extrap—obs: 10.6%
  CI_obs: 7.13 mL/min/kg
  MRTlnf—obs: 9.1 h
[3]
  concentration at 0.083 h: 479 ng/mL
  concentration at 0.25 h: 540 ng/mL
  concentration at 0.5 h: 405 ng/mL
  concentration at 1 h: 331 ng/mL
  concentration at 2 h: 323 ng/mL
[4]
  concentration at 0.083 h: 446 ng/mL
  concentration at 0.25 h: 450 ng/mL
  concentration at 0.5 h: 328 ng/mL
  concentration at 1 h: 269 ng/mL
  concentration at 2 h: 232 ng/mL
beagle, dog, plasma, iv, 1 mg/kg, IV 1 mg/kg, HPBCD formulation, 4 h, mean
  concentration at 4 h: 176 ng/mL
beagle, dog, plasma, iv, 1 mg/kg, IV 1 mg/kg, HPBCD formulation, 8 h, mean
  concentration at 8 h: 100 ng/mL
beagle, dog, plasma, iv, 1 mg/kg, IV 1 mg/kg, HPBCD formulation, 24 h, mean
  concentration at 24 h: 26 ng/mL
beagle, dog, plasma, iv, 1 mg/kg, IV 1 mg/kg, HPBCD formulation, individual animals
  half-life: 427 min
beagle, dog, plasma, iv, 1 mg/kg, IV 1 mg/kg, HPBCD formulation, individual animals, read-out: C0
  C0: 479 ng/mL
[5]
  AUC: 2870 ng·h/mL
  AUC(0-t): 2570 ng·h/mL
  half-life: 474 min
beagle, dog, plasma, iv, 1 mg/kg, IV 1 mg/kg, HPBCD formulation, mean, read-out: C0
  C0: 455 ng/mL
beagle, dog, plasma, iv, 1 mg/kg, IV 1 mg/kg, HPBCD formulation, mean, read-out: Vss—obs
  Vd: 3.77 L/kg
